Laboratory results published in PubChem BioAssay (NCI).
Where “and” joins values, the source holds several entries; their conditions need not be identical. Equal values may be shown once.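 Where inhibition never reached the appropriate level, the endpoint shown equals the highest concentration tested. Otherwise, values were interpolated linearly from a five-concentration, 48-hour dose response in 96-well plates. Abbreviation: GI50, concentration required for 50% inhibition of growth. The concentration for full growth arrest is given as TGI.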

What was measured:
Assay in all cases: growth of human tumour cells (NCI), 48 h
[1] = tested on: HOP-62 NSCLC
[2] = tested on: MALME-3M melanoma
[3] = tested on: RPMI-8226 leukemia
[4] = tested on: SK-MEL-28 melanoma
[5] = tested on: SN12C renal
[6] = tested on: SW-620 colon
[7] = tested on: TK-10 renal
[8] = tested on: UO-31 renal

Row | SMILES | GI50 [1] | TGI [1] | GI50 [2] | TGI [2] | GI50 [3] | TGI [3] | GI50 [4] | TGI [4] | GI50 [5] | TGI [5] | GI50 [6] | TGI [6] | GI50 [7] | TGI [7] | GI50 [8] | TGI [8]
1 | COc1cc(OC)cc(C2C3=C(COC3=O)Nc3cc(OC)ccc32)c1 (stereo unspecified) | < 0.01 µM | 21.7 µM | 13.5 µM | > 100 µM | < 0.01 µM | > 43.9 µM | < 0.01 µM | > 94.2 µM | 0.0146 µM | > 77.6 µM | < 0.01 µM | > 70.8 µM | 22.2 µM | > 92.5 µM | 0.0387 µM | > 67.7 µM
2 | CNCCCNc1nc2ccccc2c2c(=O)c3cc(OC)ccc3sc12 | 1.76 µM | 3.76 µM | 1.67 µM | 3.15 µM | 2.22 µM | 5.16 µM | 1.74 µM | 3.15 µM | 1.67 µM | 3.28 µM | 1.72 µM | 3.28 µM | 1.73 µM | 3.39 µM | 1.42 µM | 2.75 µM
3 | Cc1ccc(-c2nc(/C=N/Nc3cc(C)nc4ccc(Cl)cc34)c(C)o2)cc1 | 1.88 µM | 3.58 µM | 1.94 µM | 3.67 µM | 1.69 µM | 4.2 µM | 1.81 µM | 3.29 µM | 1.79 µM | 3.49 µM | 0.485 µM | 2.07 µM | 1.8 µM | 3.32 µM | 1.62 µM | 2.98 µM
4 | CCCCCC(O)C(O)CCC[C@H](O)[C@H]1CC[C@H]([C@H]2CC[C@H]([C@H](O)CCCCCCCCCCCCC3=C[C@H](C)OC3=O)O2)O1 (stereo partly specified) | 15.2 µM | 32 µM |  | 29.8 µM |  | 4.51 µM | 14.7 µM | 73 µM | 13.6 µM | 66.6 µM | 7.51 µM | > 100 µM | 6.83 µM | 26.2 µM | 4.46 µM | 5.67 µM and 20.5 µM
5 | CCCOC(=O)c1c(C)n(C)c2scc[n+]12 | 44.6 µM | > 100 µM | > 100 µM | > 100 µM |  |  | > 100 µM | > 100 µM | 59.5 µM | > 100 µM | 67.4 µM | > 100 µM | > 100 µM | > 100 µM | > 100 µM | > 100 µM
6 | O=C(NNc1ccc(Cl)cc1)C1CCC(CNS(=O)(=O)c2ccccc2Cl)CC1 (stereo unspecified) |  |  |  |  | 4.91 µM | 21.9 µM |  |  | 14.7 µM | 50.9 µM | 40.6 µM | > 100 µM | 0.453 µM | 6.68 µM | 56.2 µM | > 100 µM
7 | COc1ccc(-c2cc3c(C)nc(N)nc3n(C3CCC(OCCO)CC3)c2=O)cn1 (stereo unspecified) | 0.0997 µM and 0.113 µM | 2.11 µM and 1.93 µM | 0.035 µM and 0.0195 µM | 0.263 µM and 0.134 µM | 0.157 µM and 0.0612 µM | > 3.74 µM and 3.27 µM | 0.0517 µM and 0.074 µM | 0.425 µM and 0.604 µM | 0.079 µM and 0.0758 µM | > 100 µM | 0.181 µM and 0.162 µM | > 10 µM | 0.026 µM and 0.0264 µM | 0.235 µM and 0.197 µM | 0.0265 µM and 0.0169 µM | 0.378 µM and 0.492 µM
8 | CC(=O)N1CCN(CCNC(=O)n2cc(-c3ccncc3)c(-c3cc(O)cc(Cl)c3)n2)CC1 | 16.7 µM | 32.6 µM |  |  | 4.69 µM | 23.4 µM | 3.92 µM | 16.8 µM | 13.7 µM | 46.2 µM | 10.9 µM | 26.9 µM | 21.8 µM | 50.1 µM | 8.95 µM | 22.5 µM
